Results reported in patent publication US12194040B2, “FAK inhibitor and drug combination thereof” (HINOVA PHARMACEUTICALS INC., priority 2018, dated 2025).
One block for each compound: values may come before it.

Columns and labels:
[1] = Pharmacokinetic test in rats (PO, 10 mpk); format: in vivo; details: male SD rats, PO (gavage), plasma
Method: An appropriate amount of test drug (10 mg) was accurately weighed, and 0.25 ml of N,N-dimethylacetamide (DMA) was first added to dissolve it, then 0.5% sodium carboxymethyl cellulose (CMC-Na) was slowly added to 5 ml. The mixture was sonicated, vortexed, and mixed well. 0.2 ml of the final solution prepared above was taken out and stored at −20° C. for the concentration determination.
After fasted overnight (free drinking water), three healthy adult male SD rats (180-250 g, purchased from Chengdu Dossy Experimental Animal Co., Ltd.) were administered by gavaging with a volume of 5 ml/kg; Prior to administration, as well as 0.5 h, 1 h, 2 h, 4 h, 6 h, 8 h, 12 h, 24 h after administration, 0.1 ml of blood was collected from the retroorbital venous plexus, centrifuged at 4° C. for 5 min to separate the plasma, and stored at −20° C. for testing. Then, LC/MS/MS method was used to determine the concentration of the test compound in the plasma.

PAN-02 tumor model = experiment: Pharmacodynamic experiment on PAN02 tumor animal model; format: in vivo, C57BL/6 mice; details: PAN-02, group 4: compound 44 25 mg/kg i.g. BID; 33 days
Excerpt: The PAN-02 cells in the logarithmic growth phase were collected, washed twice with PBS, and then resuspended in pre-cooled PBS for inoculation. The experimental animals were C57BL/6 mice, females, purchased from Beijing Vital River Experimental Animal Technology Co., Ltd. C57BL/6 mice were adapted to the laboratory environment for 3 days. PAN-02 cells were subcutaneously inoculated into the right ribs, and the amount of cells inoculated was 1×10^6/mouse. When the tumor grew to about 100 mm^3, they will be screened and randomly grouped. Each group included 8 mice. According to Table 4, mice were grouped and administrated as the dosing regimen. The day of grouping and administration was defined as day 1, and the administration period was 33 days.

MC38 tumor model = experiment: Pharmacodynamic experiment on MC38 tumor animal model; format: in vivo, C57BL/6 mice; details: MC38, group 4: compound 44 50 mg/kg p.o. QD × 21; day 18
Method: Cell culture: MC-38 cells are cultured in DMEM medium containing 10% fetal bovine serum (FBS). MC-38 cells in logarithmic growth phase were collected, and resuspended in HBSS to a concentration suitable for subcutaneous tumor inoculation in C57BL/6 mice.
Experimental animals: C57BL/6 mice, female, 6-8 weeks old, weighing about 18-20 g, 96 mice, purchased from Beijing Vital River Experimental Animal Technology Co., Ltd.
Tumor cell inoculation: Tumor cells in logarithmic growth phase were collected, and the cell concentration was adjusted to 5×10^6/mL with HBSS, then 0.1 mL was subcutaneously inoculated on the right side of each mouse near the back, that is, 5×10^5/mouse. Then, the tumor volume was observed and measured. When the average tumor volume of the mice grew to 50-100 mm^3, the tumor-bearing mice were randomly grouped according to the tumor volume and administered. The detailed information was shown in Table 3, and the day of grouping and administration was defined as day 0.
Calculation of tumor volume: The mice were sacrificed on the 18th day, the tumor was taken out, the tumor volume was measured, and the tumor inhibition rate of each group was calculated.

FAK enzyme = FAK enzyme (Homo sapiens, UniProt Q05397); experiment: Inhibitory activity on FAK enzyme (HTRF, Sa-XL665 / TK antibody-Eu3+); format: biochemical
FAK enzyme, sequence (Q05397 whole entry, species assumed): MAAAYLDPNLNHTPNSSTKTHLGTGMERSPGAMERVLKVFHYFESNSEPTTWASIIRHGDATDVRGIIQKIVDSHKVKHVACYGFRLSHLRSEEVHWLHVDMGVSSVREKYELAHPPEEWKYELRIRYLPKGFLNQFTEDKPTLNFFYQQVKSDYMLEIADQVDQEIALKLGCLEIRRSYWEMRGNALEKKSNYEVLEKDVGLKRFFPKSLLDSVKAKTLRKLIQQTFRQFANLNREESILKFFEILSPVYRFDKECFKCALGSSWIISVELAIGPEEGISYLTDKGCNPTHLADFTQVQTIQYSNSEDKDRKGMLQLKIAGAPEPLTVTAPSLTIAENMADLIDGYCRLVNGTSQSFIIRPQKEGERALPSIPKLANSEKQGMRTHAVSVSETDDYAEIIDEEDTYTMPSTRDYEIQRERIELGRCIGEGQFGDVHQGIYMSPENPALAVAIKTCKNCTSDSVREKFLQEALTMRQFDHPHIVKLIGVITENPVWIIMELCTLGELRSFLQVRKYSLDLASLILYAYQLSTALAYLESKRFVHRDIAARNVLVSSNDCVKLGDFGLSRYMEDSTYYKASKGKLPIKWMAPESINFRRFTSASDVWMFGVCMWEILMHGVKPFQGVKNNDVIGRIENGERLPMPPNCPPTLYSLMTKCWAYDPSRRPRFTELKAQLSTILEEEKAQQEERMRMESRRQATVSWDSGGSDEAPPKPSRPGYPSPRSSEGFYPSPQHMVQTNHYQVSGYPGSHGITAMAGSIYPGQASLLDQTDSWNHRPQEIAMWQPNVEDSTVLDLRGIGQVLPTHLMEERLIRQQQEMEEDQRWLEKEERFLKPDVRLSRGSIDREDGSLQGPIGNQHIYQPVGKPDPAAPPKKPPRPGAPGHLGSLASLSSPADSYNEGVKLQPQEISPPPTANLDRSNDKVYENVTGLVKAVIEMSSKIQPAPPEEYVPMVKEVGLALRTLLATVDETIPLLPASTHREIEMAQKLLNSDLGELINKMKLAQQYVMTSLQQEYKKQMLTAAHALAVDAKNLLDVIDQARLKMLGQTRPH
Method: By referring to literature methods (Cancer Res. 2008, 68, 1935), the experiment of inhibitory activity on FAX enzyme was carried out. The details are as follows: the test compound was diluted to 1000 nM, and then subjected to 1:3 serial dilution with DMSO. 0.1 L of the solution was transferred into a 384-well plate, and 2 replicate wells were set up for each concentration. 5 µL of 2 FAK enzyme solution was added, then centrifuged at 1000 rpm for 1 min, and incubated at 25° C. for 15 min. 5 L of 2× substrate solution was added and incubate at 25° C. for 60 min. Then, 5 µL of Sa-XL665 solution and 5 μL of TK antibody-Eu3+ were added, and centrifuged at 1000 rpm for 1 min, then incubated at 25° C. for 60 min. Finally, Envision 2104 plate reader was used to read the fluorescence signal, and calculate the half inhibitory concentration IC50 of each compound on FAX enzyme.

half life t1/2 [1]: 1.75 h
Compound: [2H]C([2H])([2H])NC(=O)c1ccc(Nc2ncc(C(F)(F)F)c(NCc3nccnc3N(C)S(C)(=O)=O)n2)cc1 [Compound 25, N-trideuteromethyl-4-((4-(((3-(N-methanesulfonamido)pyrazin-2-yl)methyl)amino)-5-(trifluoromethyl)pyrimidin-2-yl)amino)benzamide]

Compound: [2H]C([2H])([2H])NC(=O)c1ccc(Nc2ncc(C(F)(F)F)c(NCc3nccnc3N(C([2H])([2H])[2H])S(C)(=O)=O)n2)cc1 [Compound 44, N-trideuteromethyl-4-((4-(((3-(N-trideuteromethylmethanesulfonamido)pyrazin-2-yl)methyl)amino)-5-(trifluoromethyl)pyrimidin-2-yl)amino)benzamide]
Tumor inhibition rate (PAN-02 tumor model): 66% | Tumor inhibition rate (MC38 tumor model): 26.9%

IC50 (FAK enzyme): 0.15 nM
Compound: N-deuteromethyl-4-((4-(((3-(N-deuteromethanesulfonamido) pyrazin-2-yl)deuteromethyl)amino)-5-(trifluoromethyl)pyrimidine-2-yl)amino)benzamide [Compound 45]
